We go through twelve molecules from patent US12281119B2, “Imidazo[2,1-f][1,2,4]triazin-4-amine derivatives as TLR7 agonist” (BEIGENE, LTD., priority 2019, dated 2025).

Each structure is given as a SMILES string.

One assay addresses T1, human TLR 8 protein (Homo sapiens, UniProt Q9NR97).
T1 construct: expressed in transfected cells; host or cells: HEK293 (HEK-Blue hTLR8)
T1 sequence (Q9NR97 27-1041): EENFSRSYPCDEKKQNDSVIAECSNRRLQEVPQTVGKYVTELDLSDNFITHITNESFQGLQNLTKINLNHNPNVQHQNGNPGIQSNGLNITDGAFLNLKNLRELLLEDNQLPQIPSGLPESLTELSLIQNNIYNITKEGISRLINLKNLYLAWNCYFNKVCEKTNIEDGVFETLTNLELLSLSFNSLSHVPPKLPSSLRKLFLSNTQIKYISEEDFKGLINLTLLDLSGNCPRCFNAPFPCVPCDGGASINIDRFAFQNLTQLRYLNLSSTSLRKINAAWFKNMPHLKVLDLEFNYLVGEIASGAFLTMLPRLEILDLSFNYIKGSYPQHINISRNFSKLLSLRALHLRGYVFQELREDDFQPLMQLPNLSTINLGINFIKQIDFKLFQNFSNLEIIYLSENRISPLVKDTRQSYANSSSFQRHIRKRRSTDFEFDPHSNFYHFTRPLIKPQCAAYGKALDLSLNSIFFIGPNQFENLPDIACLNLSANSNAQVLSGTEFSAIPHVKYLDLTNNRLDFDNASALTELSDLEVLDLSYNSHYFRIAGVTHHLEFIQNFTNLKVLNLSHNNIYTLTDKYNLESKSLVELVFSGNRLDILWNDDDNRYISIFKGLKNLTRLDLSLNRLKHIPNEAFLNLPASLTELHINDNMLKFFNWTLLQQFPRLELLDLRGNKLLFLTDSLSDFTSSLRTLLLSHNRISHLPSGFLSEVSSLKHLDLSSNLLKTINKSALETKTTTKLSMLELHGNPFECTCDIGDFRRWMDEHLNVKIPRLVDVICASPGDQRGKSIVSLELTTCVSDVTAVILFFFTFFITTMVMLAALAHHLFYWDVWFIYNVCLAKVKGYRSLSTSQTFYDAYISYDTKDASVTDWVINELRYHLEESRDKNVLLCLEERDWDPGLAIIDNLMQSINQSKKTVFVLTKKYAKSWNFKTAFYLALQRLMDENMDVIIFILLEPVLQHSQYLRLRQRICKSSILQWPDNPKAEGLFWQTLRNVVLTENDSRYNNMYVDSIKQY
Kind of assay: TLR8 stimulation determined using HEK-Blue Detection. It is filed as cell-based. The conditions noted are these: HEK-Blue hTLR8 cells, 16 hr, relative to Resiquimod or Motolimod maximum. The text has this:
TLR8 Stimulation Determined Using HEK-Blue Detection
This assay was designed for studying the stimulation of human TLR 8 protein in HEK-Blue hTLR8 tool cell line by monitoring the activation of NF-1B. HEK-Blue hTLR8 cells were obtained by co-transfection of the hTLR8 gene and an optimized secreted embryonic alkaline phosphatase (SEAP) reporter gene into HEK293 cells. The SEAP reporter gene was placed under the control of the IFN-β minimal promoter fused to five NF-κB and AP-1-binding sites. Stimulation with a TLR 8 ligand activates NF-κB and AP-1 which induce the expression of SEAP. Levels of SEAP can be easily determined with HEK-Blue Detection, a cell culture medium that allows for real-time detection of SEAP. HEK-Blue Detection contains all the nutrients necessary for cell growth and a specific SEAP color substrate. The hydrolysis of the substrate by SEAP produces a purple/blue color that can be measured with a spectrophotometer.
When growing to 50-80% confluency, HEK-Blue hTLR7/8 cells were plated into 96-well plate (costar 3599) at a density of 40000 cells/well. Then compounds were added with serial dilutions over 10 points with a 1 nM-10 uM final concentration range in 0.1% DMSO/HEK-Blue Detection. The plates were then incubated for 16 hr at 37° C. in 5% CO2. The optical density at 620-655 nm was read on BMG PHERAstar FSX instrument. The EC50 for each compound was determined by calculating the percentages of the maximum activation identified with Resiquimod or Motolimod.

In a further assay the target is T2, human TLR7 (Homo sapiens, UniProt Q9NYK1).
T2 sequence (Q9NYK1 27-1049): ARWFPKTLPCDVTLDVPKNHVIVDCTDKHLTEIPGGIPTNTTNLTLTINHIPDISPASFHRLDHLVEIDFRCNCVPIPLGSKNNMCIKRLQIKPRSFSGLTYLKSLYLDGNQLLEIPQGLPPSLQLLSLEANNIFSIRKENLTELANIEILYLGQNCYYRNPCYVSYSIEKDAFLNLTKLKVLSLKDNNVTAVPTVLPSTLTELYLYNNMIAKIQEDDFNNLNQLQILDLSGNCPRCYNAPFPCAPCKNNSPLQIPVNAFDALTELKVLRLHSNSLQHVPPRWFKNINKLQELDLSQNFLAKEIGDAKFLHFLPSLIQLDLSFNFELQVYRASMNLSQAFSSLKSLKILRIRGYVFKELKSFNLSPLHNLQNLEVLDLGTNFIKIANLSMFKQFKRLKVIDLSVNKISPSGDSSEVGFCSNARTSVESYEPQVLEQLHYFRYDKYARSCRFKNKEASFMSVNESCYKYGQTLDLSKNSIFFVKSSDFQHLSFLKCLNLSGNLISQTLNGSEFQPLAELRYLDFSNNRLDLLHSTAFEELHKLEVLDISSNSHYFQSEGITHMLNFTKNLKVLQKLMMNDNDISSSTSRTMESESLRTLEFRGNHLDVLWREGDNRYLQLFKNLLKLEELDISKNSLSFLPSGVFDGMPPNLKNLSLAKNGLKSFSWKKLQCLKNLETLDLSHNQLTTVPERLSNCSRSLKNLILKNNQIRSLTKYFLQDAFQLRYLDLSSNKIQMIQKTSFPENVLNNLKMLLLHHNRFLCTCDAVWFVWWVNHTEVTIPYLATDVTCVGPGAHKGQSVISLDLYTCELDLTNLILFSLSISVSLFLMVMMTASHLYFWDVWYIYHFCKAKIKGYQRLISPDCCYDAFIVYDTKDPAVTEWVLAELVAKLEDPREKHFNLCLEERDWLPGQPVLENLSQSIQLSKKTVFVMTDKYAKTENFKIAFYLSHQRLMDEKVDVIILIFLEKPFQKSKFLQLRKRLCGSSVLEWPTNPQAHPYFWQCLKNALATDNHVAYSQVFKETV
Kind of assay: TLR7 stimulation determined using HEK-Blue Detection. It is filed as cell-based. More on the design: expressed in transfected cells; host or cells: HEK293 (HEK-Blue hTLR7). The conditions noted are these: HEK-Blue hTLR7 cells, HEK-Blue Detection (A77-A124), 16 hr, relative to Resiquimod maximum. The source says: TLR7 Stimulation Determined Using HEK-Blue Detection
This assay was designed for studying the stimulation of human TLR7 protein in HELK-Blue hTLR7 tool cell line by monitoring the activation of NF-κB. HEK-Blue hTLR7 cells were obtained by co-transfection of the hTLR7 gene and an optimized secreted embryonic alkaline phosphatase (SLAP) reporter gene into HEK293 cells. The SLAP reporter gene was placed under the control of the IFN-β minimal promoter fused to five NF-κB and AP-1-binding sites. Stimulation with a TLR7 ligand activates NF-κB and AP-1 which induce the expression of SLAP. Levels of SLAP can be easily determined with HEK-Blue Detection, a cell culture medium that allows for real-time detection of SLAP. HLK-Blue Detection contains all the nutrients necessary for cell growth and a specific SLAP color substrate. The hydrolysis of the substrate by SLAP produces a purple/blue color that can be measured with a spectrophotometer.
When growing to 50-80%0 confluency, HLK-Blue hTLR7 cells were plated into 96-well plate (costar 3599) at a density of 40000 cells/well. Then compounds were added with serial dilutions over 10 points with a 0.04 nM-10 μM final concentration range in 0.1% DMSO/BLK-Blue Detection. The plates were then incubated for 16 hr at 37° C. in […] and vortex for 30s before measurement. The optical density at 620-655 nm was read on BMG PHLRAstar FSX instrument. The EC50 for each compound was determined by calculating the percentages of the maximum activation identified with Resiquimod.

On to `CCCC(CCO)Oc1nc(N)c2ncc(Cc3ccc(OCCNC)c(F)c3)n2n1` (single isomer, unassigned) [Compound A106, (S or R)-3-((4-amino-7-(3-fluoro-4-(2-(methylamino)ethoxy)benzyl)imidazo[2,1-f][1,2,4]triazin-2-yl)oxy)hexan-1-ol], for which the results for the 50% effective concentration (EC50) at human TLR 8 protein and at human TLR7 were 12 nM and 1.6 nM, respectively.
Taken in the same sequence, the figures for `CCCC(CCO)Oc1nc(N)c2ncc(Cc3ccc(OCCNC)cc3C)n2n1` (single isomer, unassigned) [Compound A107, (R or S)-3-((4-amino-7-(2-methyl-4-(2-(methylamino)ethoxy)benzyl)imidazo[2,1-f][1,2,4]triazin-2-yl)oxy)hexan-1-ol] were 16 nM and 1.3 nM.
Taken in the same sequence, the figures for `CCCC(CCO)Oc1nc(N)c2ncc(Cc3ccc(OCCNC)cc3Cl)n2n1` (single isomer, unassigned) [Compound A108, (R or S)-3-((4-amino-7-(2-chloro-4-(2-(methylamino)ethoxy)benzyl)imidazo[2,1-f][1,2,4]triazin-2-yl)oxy)hexan-1-ol] were 21 nM and 0.8 nM.
Regarding `CCCC(CCO)Oc1nc(N)c2ncc(Cc3ccc(OC(C)CNC)nc3)n2n1` (single isomer, unassigned) [Compound A109, (3R or S)-3-((4-amino-7-((6-((1-(methylamino)propan-2-yl)oxy)pyridin-3-yl)methyl)imidazo [2,1-f][1,2,4]triazin-2-yl)oxy)hexan-1-ol], the values for the EC50 at human TLR 8 protein and on human TLR7 were 47 nM and 3.4 nM, respectively.
On to `CCCC(CCO)Oc1nc(N)c2ncc(Cc3ccc(CCCNC)cc3)n2n1` (single isomer, unassigned) [Compound A110, (R or S)-3-((4-amino-7-(4-(3-(methylamino)propyl)benzyl)imidazo[2,1-f][1,2,4]triazin-2-yl)oxy)hexan-1-ol], for which the figures for the EC50 at human TLR 8 protein and on human TLR7 were 65 nM and 4 nM, respectively.
The matching figures for `CCCC(CCO)Oc1nc(N)c2ncc(Cc3ccc(OCCNC)c(F)c3F)n2n1` (single isomer, unassigned) [Compound A111, (R or S)-3-((4-amino-7-(2,3-difluoro-4-(2-(methylamino)ethoxy)benzyl)imidazo[2,1-f][1,2,4]triazin-2-yl)oxy)hexan-1-ol]: 47 nM and 1.9 nM.
Regarding `CCCC(CCO)Oc1nc(N)c2ncc(Cc3cc(F)c(OCCNC)cc3F)n2n1` (single isomer, unassigned) [Compound A112, (R or S)-3-((4-amino-7-(2,5-difluoro-4-(2-(methylamino)ethoxy)benzyl)imidazo[2,1-f][1,2,4]triazin-2-yl)oxy)hexan-1-ol], the EC50 (as a rule, the concentration giving half of the maximal effect) at human TLR 8 protein amounted to 9 nM; at human TLR7, 0.93 nM.
Taken in the same sequence, the figures for `CCCC(CCO)Oc1nc(N)c2ncc(Cc3cc(OCCNC)ccc3OC)n2n1` (single isomer, unassigned) [Compound A113, (R or S)-3-((4-amino-7-(2-methoxy-5-(2-(methylamino)ethoxy)benzyl)imidazo[2,1-f][1,2,4]triazin-2-yl)oxy)hexan-1-ol] were 98 nM and 24 nM.
The matching figures for `CCCC(CCO)Oc1nc(N)c2ncc(Cc3cc(F)c(OCCNC)c(F)c3)n2n1` (single isomer, unassigned) [Compound A114, (R or S)-3-((4-amino-7-(3,5-difluoro-4-(2-(methylamino)ethoxy)benzyl)imidazo[2,1-f][1,2,4]triazin-2-yl)oxy)hexan-1-ol]: 6.8 nM and 1 nM.
Consider `CCCC(CCO)Oc1nc(N)c2ncc(Cc3ccc(OCCNC)cc3F)n2n1` (single isomer, unassigned) [Compound A115, (R or S)-3-((4-amino-7-(2-fluoro-4-(2-(methylamino)ethoxy)benzyl)imidazo[2,1-f][1,2,4]triazin-2-yl)oxy)hexan-1-ol], for which the EC50 on human TLR 8 protein was found to be 7 nM; at human TLR7 it was 0.72 nM.
Regarding `CCCC(CCO)Oc1nc(N)c2ncc(Cc3cc(OC)cc(OCCNC)c3)n2n1` (single isomer, unassigned) [Compound A116, (R or S)-3-((4-amino-7-(3-methoxy-5-(2-(methylamino)ethoxy)benzyl)imidazo[2,1-f][1,2,4]triazin-2-yl)oxy)hexan-1-ol], the EC50 at human TLR 8 protein amounted to 51 nM; on human TLR7, 37.8 nM.
`CCCC(CCO)Oc1nc(N)c2ncc(Cc3ccc(OC)c(OCCNC)c3)n2n1` (single isomer, unassigned) [Compound A117, (R or S)-3-((4-amino-7-(4-methoxy-3-(2-(methylamino)ethoxy)benzyl)imidazo[2,1-f][1,2,4]triazin-2-yl)oxy)hexan-1-ol]: the EC50 at human TLR 8 protein turned out to be 532 nM; at human TLR7 it was 13 nM.
